Assay [1] concerns the target T1, human thrombopoietin receptor (c-mpl) (Homo sapiens, UniProt P40238).
T1 construct: expressed in transfected cells
T1 sequence (P40238 26-635): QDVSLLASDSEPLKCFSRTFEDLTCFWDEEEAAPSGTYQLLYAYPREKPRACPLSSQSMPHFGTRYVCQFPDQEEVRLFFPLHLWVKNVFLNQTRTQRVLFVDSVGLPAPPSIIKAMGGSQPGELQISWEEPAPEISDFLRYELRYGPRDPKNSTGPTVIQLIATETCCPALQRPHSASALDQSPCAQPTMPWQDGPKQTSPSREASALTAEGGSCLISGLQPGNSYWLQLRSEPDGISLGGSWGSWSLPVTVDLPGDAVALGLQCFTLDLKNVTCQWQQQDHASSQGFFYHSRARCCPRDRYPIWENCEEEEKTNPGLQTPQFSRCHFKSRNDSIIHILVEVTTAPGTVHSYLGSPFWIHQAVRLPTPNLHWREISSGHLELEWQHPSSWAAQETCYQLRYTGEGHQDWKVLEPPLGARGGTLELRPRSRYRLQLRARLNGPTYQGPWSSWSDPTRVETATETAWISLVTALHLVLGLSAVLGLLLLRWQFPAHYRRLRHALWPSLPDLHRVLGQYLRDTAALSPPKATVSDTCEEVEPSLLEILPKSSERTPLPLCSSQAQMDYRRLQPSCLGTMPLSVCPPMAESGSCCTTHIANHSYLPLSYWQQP
The note with it: property of the cell line as described; cited from earlier work.

For assay [2], the system named is UT7/EPO cells. The note with it: property of the cell line as described; cited from earlier work.
Assay [3] deals with T1, human thrombopoietin receptor (c-mpl). In words: Stimulation of proliferation of thrombopoietin-dependent cell line UT7/EPO-mpl (WST-8). The note with it: for EC50: human leukemic cell line UT-7/EPO-mpl, 4 days incubation, relative to 10 ng/mL TPO, read-out: EC50 (concentration that yields a growth rate corresponding to 50% of the growth observed in the presence of 10 ng/mL TPO) (converted). In kind it is cell-based. The protocol:
The response of thrombopoietin receptor to the compound of Synthetic Example 2 of the present invention was assayed using a human leukemic cell line, UT7/EPO-mpl.
(§1) UT7/EPO-mpl is a stable transformed cell line obtained by introducing into human leukemic cell line UT7/EPO a vector that induces expression of human thrombopoietin receptor (c-mpl) under control of cytomegalovirus immediate-early promoter by the method of Takatoku et al. (J. Biol. Chem., 272:7259-7263 (1997)). […] These two cell lines were subcultured in IMDM (GIBCO) containing 10% fetal bovine serum (Thermo Electron or BioWest) using a CO2 incubator (5% CO2, 37° C.).
The subcultured cells described above were washed twice with PBS and suspended in IMDM containing 10% fetal bovine serum at a cell density of 6×10^4 cells/ml. The cell suspension was transferred to a 96-well tissue culture plate (CORNING) in 100-μl aliquots. Then either thrombopoietin (Pepro Tech EC, or the compound of Synthetic Example 2 dissolved in dimethyl sulfoxide was diluted 83-fold with IMDM containing 10% fetal bovine serum and added to the aforementioned cell suspension in 20-μl aliquots. The cell suspension was incubated in a CO2 incubator (5% CO2, 37° C.) for 4 days. Cell proliferation was assayed using WST-8 reagent (Kishida Chemical Co., Ltd.) according to instructions by the manufacturer. A 10-μl aliquot of 5 mM WST-8 reagent solution was added to each well of the tissue culture plate, and the plate was incubated at 37° C. for 4 hours. The formazan pigment generated was detected by measuring the absorbance at 450 nm with a 96-well microplate reader (Nihon Molecular Devices, Spectramax 190).
The compounds of the following Synthetic Examples were tested according to the method of Assay Example 1 to determine the concentration of each compound that yields a growth rate corresponding to 50% of the growth of human leukemic cell line UT-7/EPO-mpl observed in the presence of 10 ng/mL TPO (EC50).

The test system of assay [4] is UT7/EPO cells. In words: Proliferation of mother cell line UT7/EPO expressing no thrombopoietin receptor (WST-8). In kind it is cell-based, human. The note with it: FIG. 2. How it is done:
as §1
The subcultured cells described above were washed twice with PBS and suspended in IMDM containing 10% fetal bovine serum at a cell density of 6×10^4 cells/ml. The cell suspension was transferred to a 96-well tissue culture plate (CORNING) in 100-μl aliquots. […] The formazan pigment generated was detected by measuring the absorbance at 450 nm with a 96-well microplate reader (Nihon Molecular Devices, Spectramax 190).

Regarding “TPO: Thrombopoietin is a cytokine consisting of 332 amino acids that increases platelet production”, in assay [1], the “proliferation of UT7/EPO-mpl cell line” value was “stimulated”. Besides, the “response of mother cell line UT7/EPO” value in the assay on UT7/EPO cells [2] is given as “no response”. For `C/C(=N\NC(=O)c1ccc(C(=O)NNc2ccccn2)s1)c1csc(-c2ccc(Cl)c(Cl)c2)c1O` [compound 58], in assay [3], the EC50 was 1.56 nM. For `C/C(=N\NC(=O)c1ccc(C(=O)NCC2CCCO2)s1)c1csc(-c2ccc(Cl)c(Cl)c2)c1O` (stereo not shown) [Synthetic Example 2, 5-{1-[5-(3,4-Dichlorophenyl)-4-hydroxythiophen-3-yl]ethylidenehydrazinocarbonyl}thiophene-2-carboxylic acid(tetrahydrofuran-2-ylmethyl)amide], the “effect on proliferation of UT7/EPO, the mother cell line” value with UT7/EPO cells [4] is on record as “no effect”. For the same compound, the “proliferation of thrombopoietin-responsive UT7/EPO-mpl cells” value in assay [3] (FIG. 1, UT7/EPO-mpl cells, 4 days, WST-8 absorbance at 450 nm) is on record as “stimulated”. Besides, in assay [3] (conclusion from UT7/EPO-mpl versus UT7/EPO), the “acts on the thrombopoietin receptor selectively as an activator” value is on record as “selectively”. Regarding `C/C(=N\NC(=O)c1ccc(C(=O)N2CC(O)C(O)C2)s1)c1csc(-c2cccc(Cl)c2)c1O` (stereo not shown) [compound 90], the EC50 in assay [3] is 0.652 nM. With `C/C(=N\NC(=O)c1ccc(C(=O)NCCC(=O)O)s1)c1csc(-c2ccc(Cl)cc2)c1O` [compound 45], the EC50 in assay [3] was 6.5 nM. On the same count and under the same terms, to `CC(=O)NC1CCN(C(=O)c2ccc(C(=O)N/N=C(\C)c3csc(-c4ccc(Cl)c(Cl)c4)c3O)s2)C1` (stereo not shown) [compound 5] belongs 0.566 nM; to `COC1CN(C(=O)c2ccc(C(=O)N/N=C(\C)c3csc(-c4ccc(Br)cc4)c3O)s2)CC1OC` (stereo not shown) [compound 84], 5.01 nM; to `C/C(=N\NC(=O)c1ccc(C(=O)NN(C)C)s1)c1csc(-c2ccc(C(C)(C)C)cc2)c1O` [compound 24], 2.27 nM. Still for that read-out and setting: to `C/C(=N\NC(=O)c1ccc(C(=O)NCCC(=O)O)s1)c1csc(-c2ccc(C)c(C)c2)c1O` [compound 65] belongs 4.12 nM; to `C/C(=N\NC(=O)c1ccc(C(=O)NCCCN2CCOCC2)s1)c1nn(C)c(-c2ccc(C(F)(F)F)cc2)c1O` [compound 49], 2.77 nM.

The record behind these values is patent US8134013B2, “Amide compound and thrombopoietin receptor activator” (Nissan Chemical Industries, Ltd., priority 2004, dated 2012).
